Measurements published in ChEMBL document CHEMBL1201862, “PubChem BioAssay data set” (2004).
Active and inactive are the calls of the source.

Legend:
[1] = target: DNA topoisomerase (Yersinia pestis, UniProt A0A2S9PM60); assay: Yersinia topoisomerase I cleavage product accumulation – biochemical, cherry-pick, dose response (AID 588525)
[2] = tested on: Escherichia coli; assay: microbe, parasite or virus in culture
[3] = loss of viability in HepG2 cells – cell-based, CellTiter-Glo, cherry-picked, cytotoxicity control for Shn3 inhibitor project, dose response (AID 624134); assay type: functional
[4] = tested on: Escherichia coli; assay: microbe, parasite or virus in culture; remark: listed apart in the source
[5] = non-specific 3'UTR reporter inhibition in Clone20-Shn3RL – cell-based, Renilla luciferase, cherry-picked, counter-screen for Shn3 inhibitor project, dose response (AID 624133); assay type: functional
[6] = target: Protein disulfide-isomerase (Homo sapiens, UniProt P07237); assay: inhibition of PDI-driven insulin aggregation – biochemical, turbidity, absorbance, cherry-picked samples, dose response (AID 602350); assay type: functional
[7] = target: Heat shock protein HSP 90-alpha (Homo sapiens, UniProt P07900); assay type: functional, organism-based
[8] = reduction of Shn3 3'UTR-driven luciferase in osteoblasts – cell-based, Clone20 osteoblasts, firefly luciferase, cherry-picked, dose response (AID 624132); assay type: functional;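 also: firefly luciferase luminescence from reporter carrying the Shn3 3'UTR in osteoblasts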
[9] = tested on: Vero; assay: cells; assay type: functional, cell-based; conditions: Chlorocebus sabaeus
[10] = target: T1, Hexokinase HKDC1 (Homo sapiens, UniProt Q2TB90); assay: SAR analysis of small molecule inhibitors of hexokinase domain containing I (HKDC1). [Related pubchem assays (depositor defined):AID493160, AID493190]; assay type: functional
T1 sequence (Q2TB90 whole entry): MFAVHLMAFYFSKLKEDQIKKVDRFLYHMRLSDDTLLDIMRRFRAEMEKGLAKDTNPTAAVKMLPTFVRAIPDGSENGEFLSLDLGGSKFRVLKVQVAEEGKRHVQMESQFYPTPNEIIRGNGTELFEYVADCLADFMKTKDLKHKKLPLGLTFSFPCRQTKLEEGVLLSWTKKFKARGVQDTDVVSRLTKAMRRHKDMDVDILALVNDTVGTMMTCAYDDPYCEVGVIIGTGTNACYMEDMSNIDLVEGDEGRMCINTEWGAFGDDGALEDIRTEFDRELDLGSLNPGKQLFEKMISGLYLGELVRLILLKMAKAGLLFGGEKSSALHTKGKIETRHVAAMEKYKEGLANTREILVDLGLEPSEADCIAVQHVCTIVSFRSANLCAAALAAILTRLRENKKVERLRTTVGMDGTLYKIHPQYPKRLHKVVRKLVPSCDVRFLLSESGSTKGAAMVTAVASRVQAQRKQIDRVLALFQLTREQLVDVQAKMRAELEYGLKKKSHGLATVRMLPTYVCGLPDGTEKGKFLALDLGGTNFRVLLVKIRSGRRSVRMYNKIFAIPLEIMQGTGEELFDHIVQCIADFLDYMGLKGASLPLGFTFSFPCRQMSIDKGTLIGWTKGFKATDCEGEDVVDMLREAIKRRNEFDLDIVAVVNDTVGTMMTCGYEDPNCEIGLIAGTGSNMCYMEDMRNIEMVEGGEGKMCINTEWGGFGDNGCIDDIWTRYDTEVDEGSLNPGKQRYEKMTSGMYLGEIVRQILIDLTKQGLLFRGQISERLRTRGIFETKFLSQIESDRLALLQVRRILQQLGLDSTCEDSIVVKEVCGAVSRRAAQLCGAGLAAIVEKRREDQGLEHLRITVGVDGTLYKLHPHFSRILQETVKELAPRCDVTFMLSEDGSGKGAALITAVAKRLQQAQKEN

[11] = target: Hexokinase-1 (Homo sapiens, UniProt P19367); assay: SAR analysis of small molecule inhibitors of hexokinase domain containing I (HKDC1) in the hexokinase 1 selectivity assay. [Related pubchem assays (depositor defined):AID493160, AID493190]; assay type: functional
Hexokinase-1, sequence (P19367 whole entry, the tested form may be a part): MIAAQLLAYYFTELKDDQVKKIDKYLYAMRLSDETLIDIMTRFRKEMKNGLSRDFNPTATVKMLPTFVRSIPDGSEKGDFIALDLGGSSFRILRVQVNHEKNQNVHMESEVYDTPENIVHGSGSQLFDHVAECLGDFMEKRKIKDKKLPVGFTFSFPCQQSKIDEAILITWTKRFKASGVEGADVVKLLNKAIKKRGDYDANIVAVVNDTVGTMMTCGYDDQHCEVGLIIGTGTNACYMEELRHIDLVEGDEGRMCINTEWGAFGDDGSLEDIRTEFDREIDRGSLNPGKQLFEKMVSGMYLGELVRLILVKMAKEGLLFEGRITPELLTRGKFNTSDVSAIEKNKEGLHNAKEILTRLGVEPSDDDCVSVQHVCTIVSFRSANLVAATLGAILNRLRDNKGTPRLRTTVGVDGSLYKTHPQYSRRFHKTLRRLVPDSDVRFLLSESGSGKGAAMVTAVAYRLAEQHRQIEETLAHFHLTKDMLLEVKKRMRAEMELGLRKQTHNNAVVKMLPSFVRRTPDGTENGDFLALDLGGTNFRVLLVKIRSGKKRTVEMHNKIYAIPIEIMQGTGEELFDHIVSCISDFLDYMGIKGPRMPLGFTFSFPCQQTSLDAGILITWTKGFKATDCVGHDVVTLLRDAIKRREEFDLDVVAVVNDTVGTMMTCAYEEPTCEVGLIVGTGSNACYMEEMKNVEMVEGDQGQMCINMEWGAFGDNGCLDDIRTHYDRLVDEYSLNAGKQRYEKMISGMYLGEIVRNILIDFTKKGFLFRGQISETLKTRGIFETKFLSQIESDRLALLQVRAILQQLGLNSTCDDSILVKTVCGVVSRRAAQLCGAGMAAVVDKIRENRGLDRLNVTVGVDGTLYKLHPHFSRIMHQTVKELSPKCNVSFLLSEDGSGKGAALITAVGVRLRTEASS

[12] = target: Phospholipase D2 (Homo sapiens, UniProt O14939); assay: cellular phospholipase D2 inhibition IC50 – cell-based, dose response (AID 602147); assay type: functional;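 also: cellular assay in HEK293 cells overexpressing GFP-tagged PLD2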
Phospholipase D2, sequence (O14939 whole entry): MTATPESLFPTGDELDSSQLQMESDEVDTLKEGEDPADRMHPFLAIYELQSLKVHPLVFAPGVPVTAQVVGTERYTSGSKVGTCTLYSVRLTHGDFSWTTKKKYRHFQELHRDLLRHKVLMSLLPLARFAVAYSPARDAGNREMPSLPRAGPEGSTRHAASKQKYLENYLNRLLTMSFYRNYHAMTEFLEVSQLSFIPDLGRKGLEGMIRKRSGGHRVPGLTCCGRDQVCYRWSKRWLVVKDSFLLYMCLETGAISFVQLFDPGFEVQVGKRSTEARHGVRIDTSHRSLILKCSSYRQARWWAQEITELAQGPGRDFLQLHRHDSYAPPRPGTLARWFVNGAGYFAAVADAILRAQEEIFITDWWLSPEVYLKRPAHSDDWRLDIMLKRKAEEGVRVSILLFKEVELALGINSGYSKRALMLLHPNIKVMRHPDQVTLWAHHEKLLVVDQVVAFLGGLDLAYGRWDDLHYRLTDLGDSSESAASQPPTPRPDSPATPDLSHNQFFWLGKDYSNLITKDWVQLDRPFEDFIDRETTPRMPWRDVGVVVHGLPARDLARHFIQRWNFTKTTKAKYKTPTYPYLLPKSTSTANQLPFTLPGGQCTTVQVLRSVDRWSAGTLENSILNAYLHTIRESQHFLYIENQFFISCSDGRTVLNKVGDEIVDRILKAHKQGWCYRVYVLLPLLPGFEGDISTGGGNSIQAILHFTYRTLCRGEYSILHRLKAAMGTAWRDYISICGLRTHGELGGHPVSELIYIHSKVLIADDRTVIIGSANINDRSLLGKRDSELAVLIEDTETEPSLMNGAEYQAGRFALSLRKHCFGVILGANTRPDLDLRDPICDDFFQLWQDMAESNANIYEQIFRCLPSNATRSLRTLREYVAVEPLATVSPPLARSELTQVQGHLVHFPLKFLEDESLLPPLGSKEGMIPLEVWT

[13] = target: Phospholipase D1 (Homo sapiens, UniProt Q13393); assay: cellular phospholipase D1 inhibition IC50 – cell-based, dose response (AID 602151); assay type: functional;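 also: cellular PLD1 assay in Calu-1 cells stimulated with PMA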
Phospholipase D1, sequence (Q13393 whole entry): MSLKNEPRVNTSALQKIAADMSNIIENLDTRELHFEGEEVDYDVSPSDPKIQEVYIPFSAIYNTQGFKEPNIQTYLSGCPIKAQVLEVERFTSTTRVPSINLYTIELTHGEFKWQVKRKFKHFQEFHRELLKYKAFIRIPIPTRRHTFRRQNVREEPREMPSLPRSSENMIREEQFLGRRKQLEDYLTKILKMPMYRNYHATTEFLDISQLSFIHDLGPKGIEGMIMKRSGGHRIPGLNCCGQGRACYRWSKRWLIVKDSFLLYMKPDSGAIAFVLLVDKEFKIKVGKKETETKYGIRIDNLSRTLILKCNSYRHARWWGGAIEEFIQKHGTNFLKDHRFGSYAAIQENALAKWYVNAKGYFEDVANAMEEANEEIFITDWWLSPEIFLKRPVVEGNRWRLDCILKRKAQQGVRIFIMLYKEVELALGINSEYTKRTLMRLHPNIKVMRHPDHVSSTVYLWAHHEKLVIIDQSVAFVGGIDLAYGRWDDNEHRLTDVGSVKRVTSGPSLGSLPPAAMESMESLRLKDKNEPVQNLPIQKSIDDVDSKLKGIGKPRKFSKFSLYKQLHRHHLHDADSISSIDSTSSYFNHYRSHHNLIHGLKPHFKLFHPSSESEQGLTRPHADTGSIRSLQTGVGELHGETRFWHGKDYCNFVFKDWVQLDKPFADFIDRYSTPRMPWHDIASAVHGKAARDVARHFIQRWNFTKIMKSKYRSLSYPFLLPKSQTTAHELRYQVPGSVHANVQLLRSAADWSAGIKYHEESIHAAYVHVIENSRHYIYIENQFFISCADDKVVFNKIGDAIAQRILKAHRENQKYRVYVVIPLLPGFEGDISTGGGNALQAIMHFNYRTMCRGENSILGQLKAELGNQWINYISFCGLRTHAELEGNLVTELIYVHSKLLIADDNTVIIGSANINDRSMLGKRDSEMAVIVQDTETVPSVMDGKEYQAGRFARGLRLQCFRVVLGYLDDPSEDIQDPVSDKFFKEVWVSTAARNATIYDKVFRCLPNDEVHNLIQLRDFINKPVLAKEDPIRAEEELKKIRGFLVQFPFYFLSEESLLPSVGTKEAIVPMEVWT

[14] = target: T2, Sentrin-specific protease 6 (Homo sapiens, UniProt Q9GZR1); assay: SAR Analysis of small molecule inhibitors of Sentrin-specific protease 6 (SENP6) using a Luminescent assay. [Related pubchem assays (depositor defined):AID2582, AID2599]; assay type: functional
T2 sequence (Q9GZR1 whole entry): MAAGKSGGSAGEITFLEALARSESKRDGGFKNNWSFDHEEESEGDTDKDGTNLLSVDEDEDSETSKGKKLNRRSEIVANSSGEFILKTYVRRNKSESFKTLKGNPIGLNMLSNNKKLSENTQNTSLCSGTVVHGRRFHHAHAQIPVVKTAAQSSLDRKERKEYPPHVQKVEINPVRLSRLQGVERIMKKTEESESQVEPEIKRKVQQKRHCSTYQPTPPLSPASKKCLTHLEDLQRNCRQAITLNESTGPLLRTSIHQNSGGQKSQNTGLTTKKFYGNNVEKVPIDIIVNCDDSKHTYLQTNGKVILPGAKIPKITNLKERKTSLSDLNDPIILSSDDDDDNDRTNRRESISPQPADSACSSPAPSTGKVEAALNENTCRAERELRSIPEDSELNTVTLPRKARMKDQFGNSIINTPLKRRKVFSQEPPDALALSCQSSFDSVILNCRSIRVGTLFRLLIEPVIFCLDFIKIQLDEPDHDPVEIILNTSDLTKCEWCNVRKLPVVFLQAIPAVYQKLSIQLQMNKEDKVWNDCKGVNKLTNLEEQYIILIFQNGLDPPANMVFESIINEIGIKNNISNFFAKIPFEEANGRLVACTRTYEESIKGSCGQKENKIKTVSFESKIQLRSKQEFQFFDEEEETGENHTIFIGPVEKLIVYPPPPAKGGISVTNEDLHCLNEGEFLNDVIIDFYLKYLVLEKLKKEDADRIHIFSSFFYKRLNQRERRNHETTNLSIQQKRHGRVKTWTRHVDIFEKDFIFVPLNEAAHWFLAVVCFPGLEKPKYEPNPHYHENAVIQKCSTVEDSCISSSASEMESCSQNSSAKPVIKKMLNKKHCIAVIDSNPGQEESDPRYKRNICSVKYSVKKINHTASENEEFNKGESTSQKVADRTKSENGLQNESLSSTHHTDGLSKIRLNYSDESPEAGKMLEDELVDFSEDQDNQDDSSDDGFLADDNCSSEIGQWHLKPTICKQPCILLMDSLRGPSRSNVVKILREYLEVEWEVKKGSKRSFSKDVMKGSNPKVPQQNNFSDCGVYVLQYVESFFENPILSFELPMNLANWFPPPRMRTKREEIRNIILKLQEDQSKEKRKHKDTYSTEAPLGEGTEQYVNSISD

[15] = target: T3, Sentrin-specific protease 8 (Homo sapiens, UniProt Q96LD8); assay: inhibition of human SENP8 cleavage activity – biochemical, luminescence, SAR follow-up (AID 504501); assay type: functional
T3 sequence (Q96LD8 whole entry): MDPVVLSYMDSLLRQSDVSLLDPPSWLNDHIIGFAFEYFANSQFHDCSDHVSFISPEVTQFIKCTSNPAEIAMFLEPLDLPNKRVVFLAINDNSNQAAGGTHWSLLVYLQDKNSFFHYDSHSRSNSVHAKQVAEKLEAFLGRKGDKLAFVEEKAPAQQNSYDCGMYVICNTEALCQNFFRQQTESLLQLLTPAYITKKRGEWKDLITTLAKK

[16] = target: T4, Caspase-3 (Homo sapiens, UniProt P42574); assay: SAR Analysis of small molecule inhibitors of Sentrin-specific proteases (SENPs) using a Caspase-3 Selectivity assay. [Related pubchem assays (depositor defined):AID2540, AID2599, AID434973, AID489001]; assay type: functional
T4 sequence (P42574 whole entry): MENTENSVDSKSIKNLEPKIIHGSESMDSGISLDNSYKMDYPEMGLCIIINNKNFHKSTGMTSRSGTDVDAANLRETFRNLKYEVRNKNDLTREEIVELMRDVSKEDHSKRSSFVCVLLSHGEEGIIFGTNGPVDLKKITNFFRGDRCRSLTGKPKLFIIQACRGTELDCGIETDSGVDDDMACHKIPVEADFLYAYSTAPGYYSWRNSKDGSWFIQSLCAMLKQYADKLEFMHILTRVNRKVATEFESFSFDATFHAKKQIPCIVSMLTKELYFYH

[17] = target: T5, Sentrin-specific protease 7 (Homo sapiens, UniProt Q9BQF6); assay: inhibition of human SENP7 cleavage activity – biochemical, luminescence, SAR follow-up (AID 504497); assay type: functional
T5 sequence (Q9BQF6 whole entry): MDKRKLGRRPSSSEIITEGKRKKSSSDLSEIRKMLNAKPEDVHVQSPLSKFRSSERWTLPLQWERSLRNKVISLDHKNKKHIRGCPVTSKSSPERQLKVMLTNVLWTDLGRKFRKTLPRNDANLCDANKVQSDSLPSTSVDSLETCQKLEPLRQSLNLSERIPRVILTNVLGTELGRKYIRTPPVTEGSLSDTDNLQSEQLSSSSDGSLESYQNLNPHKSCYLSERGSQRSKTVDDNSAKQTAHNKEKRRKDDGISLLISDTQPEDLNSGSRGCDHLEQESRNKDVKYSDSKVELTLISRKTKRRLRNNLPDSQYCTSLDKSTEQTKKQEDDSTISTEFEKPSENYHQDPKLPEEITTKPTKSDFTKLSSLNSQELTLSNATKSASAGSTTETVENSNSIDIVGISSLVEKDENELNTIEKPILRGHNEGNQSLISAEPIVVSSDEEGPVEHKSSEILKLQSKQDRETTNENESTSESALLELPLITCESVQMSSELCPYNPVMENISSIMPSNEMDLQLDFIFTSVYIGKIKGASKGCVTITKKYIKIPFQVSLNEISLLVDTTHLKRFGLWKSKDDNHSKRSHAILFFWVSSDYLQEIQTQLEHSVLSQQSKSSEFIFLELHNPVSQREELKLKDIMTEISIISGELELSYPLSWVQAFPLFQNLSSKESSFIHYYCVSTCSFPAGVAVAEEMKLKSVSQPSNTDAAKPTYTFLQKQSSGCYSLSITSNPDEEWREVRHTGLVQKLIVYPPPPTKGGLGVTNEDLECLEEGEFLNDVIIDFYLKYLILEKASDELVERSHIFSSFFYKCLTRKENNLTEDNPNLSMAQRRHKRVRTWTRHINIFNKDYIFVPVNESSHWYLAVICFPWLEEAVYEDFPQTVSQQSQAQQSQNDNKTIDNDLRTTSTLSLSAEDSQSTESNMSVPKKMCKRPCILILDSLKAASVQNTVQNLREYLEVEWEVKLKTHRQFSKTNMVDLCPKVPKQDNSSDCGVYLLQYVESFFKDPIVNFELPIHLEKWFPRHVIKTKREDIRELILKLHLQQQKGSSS

[18] = target: DNA dC->dU-editing enzyme APOBEC-3G (Homo sapiens, UniProt Q9HC16); assay: inhibition of APOBEC3G ssDNA deamination – biochemical, fluorescence, single-stranded DNA substrate, SAR follow-up (AID 602136); assay type: functional; conditions: read-out: IC50_Mean
DNA dC->dU-editing enzyme APOBEC-3G, sequence (Q9HC16 whole entry): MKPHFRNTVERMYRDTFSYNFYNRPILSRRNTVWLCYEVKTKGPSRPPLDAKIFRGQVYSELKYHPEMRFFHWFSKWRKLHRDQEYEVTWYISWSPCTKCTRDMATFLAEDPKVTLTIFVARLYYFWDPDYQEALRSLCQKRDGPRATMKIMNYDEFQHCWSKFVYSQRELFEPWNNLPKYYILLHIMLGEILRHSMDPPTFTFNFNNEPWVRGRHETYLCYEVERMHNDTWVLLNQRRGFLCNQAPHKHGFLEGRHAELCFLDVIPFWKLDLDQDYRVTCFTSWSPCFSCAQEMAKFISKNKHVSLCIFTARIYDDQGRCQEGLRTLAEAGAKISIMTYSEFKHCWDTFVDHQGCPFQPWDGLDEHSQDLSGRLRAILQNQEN

[19] = target: DNA dC->dU-editing enzyme APOBEC-3A (Homo sapiens, UniProt P31941); assay: SAR analysis of small molecule inhibitors of APOBEC3A DNA Deaminase via a fluorescence-based single-stranded DNA deaminase assay.; assay type: functional; conditions: read-out: IC50_Mean
DNA dC->dU-editing enzyme APOBEC-3A, sequence (P31941 whole entry): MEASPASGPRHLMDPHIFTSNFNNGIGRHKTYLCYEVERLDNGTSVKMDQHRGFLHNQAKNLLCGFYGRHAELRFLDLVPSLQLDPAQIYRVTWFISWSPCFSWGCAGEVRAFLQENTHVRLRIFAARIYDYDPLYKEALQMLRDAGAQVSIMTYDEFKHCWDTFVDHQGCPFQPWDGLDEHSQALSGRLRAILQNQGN

[20] = target: Sphingosine 1-phosphate receptor 4 (Homo sapiens, UniProt O95977); assay: Late-stage fluorescence-based dose-response cell-based counterscreen assay to identify agonists of the Sphingosine 1-Phosphate Receptor 3 (S1P3): Sphingosine 1-Phosphate Receptor 4 (S1P4) agonist assay.; assay type: functional
Sphingosine 1-phosphate receptor 4, sequence (O95977 whole entry): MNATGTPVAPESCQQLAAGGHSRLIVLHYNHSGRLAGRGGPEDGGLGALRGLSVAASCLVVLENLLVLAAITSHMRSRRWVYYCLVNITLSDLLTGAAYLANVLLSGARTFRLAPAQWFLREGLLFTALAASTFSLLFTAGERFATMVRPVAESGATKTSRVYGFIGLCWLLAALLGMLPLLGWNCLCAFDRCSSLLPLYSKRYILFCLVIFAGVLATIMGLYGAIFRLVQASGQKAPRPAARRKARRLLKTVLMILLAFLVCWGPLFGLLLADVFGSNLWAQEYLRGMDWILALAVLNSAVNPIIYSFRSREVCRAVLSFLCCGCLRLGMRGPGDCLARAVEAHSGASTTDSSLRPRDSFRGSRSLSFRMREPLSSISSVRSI

[21] = target: Sphingosine 1-phosphate receptor 2 (Homo sapiens, UniProt O95136); assay: Late-stage fluorescence-based dose-response cell-based counterscreen assay to identify agonists of the Sphingosine 1-Phosphate Receptor 3 (S1P3): Sphingosine 1-Phosphate Receptor 2 (S1P2) agonist assay.; assay type: functional
[22] = tested on: HEK293; assay: HEK293T cell viability loss, resazurin readout – resazurin fluorescence, cytotoxicity control for NF-kB activator project, SAR follow-up (AID 493251); assay type: functional, cell-based; conditions: Homo sapiens
[23] = tested on: Jurkat; assay: SAR Analysis of small molecule inhibitors of both B-cell and T-cell specific antigen receptor-induced NF-kB activation in a Jurkat cell line using a luminescence assay. [Related pubchem assays (depositor defined):AID435003, AID435022, AID465, AID489029]; assay type: functional, cell-based; conditions: Homo sapiens
[24] = tested on: HEK293; assay: SAR Analysis of small molecule inhibitors of both B-cell and T-cell specific antigen receptor-induced NF-kB activation in a HEK-293T cell line using a luminescence assay. [Related pubchem assays (depositor defined):AID435003, AID435022, AID465, AID489019, AID489029]; assay type: functional, cell-based; conditions: Homo sapiens

DNA topoisomerase, sequence (A0A2S9PM60 whole entry): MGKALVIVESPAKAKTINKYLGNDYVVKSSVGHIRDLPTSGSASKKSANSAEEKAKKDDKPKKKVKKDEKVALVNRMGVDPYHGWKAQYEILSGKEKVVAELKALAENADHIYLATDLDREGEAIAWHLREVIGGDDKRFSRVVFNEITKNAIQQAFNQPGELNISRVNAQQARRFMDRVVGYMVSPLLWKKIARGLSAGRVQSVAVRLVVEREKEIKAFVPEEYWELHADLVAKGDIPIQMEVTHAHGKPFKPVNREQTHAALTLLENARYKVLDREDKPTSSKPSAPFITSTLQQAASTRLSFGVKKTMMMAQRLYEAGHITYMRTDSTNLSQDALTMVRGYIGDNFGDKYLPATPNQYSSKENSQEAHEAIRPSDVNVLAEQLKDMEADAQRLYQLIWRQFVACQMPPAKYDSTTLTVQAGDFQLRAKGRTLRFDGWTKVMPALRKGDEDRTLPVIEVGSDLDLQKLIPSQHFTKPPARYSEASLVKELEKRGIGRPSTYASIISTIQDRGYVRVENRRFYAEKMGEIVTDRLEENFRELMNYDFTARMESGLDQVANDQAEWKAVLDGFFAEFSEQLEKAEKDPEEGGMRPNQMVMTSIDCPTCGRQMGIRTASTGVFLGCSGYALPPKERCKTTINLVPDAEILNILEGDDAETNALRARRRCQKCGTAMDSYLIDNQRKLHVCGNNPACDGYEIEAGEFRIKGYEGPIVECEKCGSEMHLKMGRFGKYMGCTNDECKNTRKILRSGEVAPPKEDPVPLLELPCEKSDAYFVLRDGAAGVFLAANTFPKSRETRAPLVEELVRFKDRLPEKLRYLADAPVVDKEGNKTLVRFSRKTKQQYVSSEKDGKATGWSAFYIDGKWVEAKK

For `COc1cc2ccccc2cc1C(=O)OCC(=O)N(CC(C)C)c1c(N)n(Cc2ccccc2)c(=O)[nH]c1=O`, the AC50 [1] was 20.8 µM (active).

For `COc1cc2cc(C(=O)N3CC(COS(C)(=O)=O)c4ccc(O)cc43)[nH]c2c(OC)c1OC` (centres undefined), the AC50 [2] was 4.26 µM (active), the AC50 [3] was 0.352 µM (active) and the AC50 [4] was 22.8 µM (active). The AC50 [5] was < 0.26 µM (active), the AC50 [6] was 18 µM (active) and the AC50 [7] was 0.708 µM (active). The AC50 [8] was < 0.26 µM (active) and the IC50 [9] was 8.57 µM (active).

In the case of `Cc1ccc(CSc2nnc(NC(=O)c3ccc4ncsc4c3)s2)cc1`, the IC50 [10] is reported as > 80 µM (inactive) and the IC50 [11] is reported as > 80 µM (inactive).

In the case of `O=C(NCCN1CCC(n2c(=O)[nH]c3ccccc32)CC1)c1cccc(F)n1`, the IC50 [12] is reported as 1.3 µM (active) and the IC50 [13] is reported as 0.19 µM (active).

In the case of `CC(C)CC(=O)Nc1ccc(-c2nc3cc(Cl)ccc3o2)cc1`, the IC50 [14] is reported as > 99 µM (inactive), the IC50 [15] is reported as > 99 µM (inactive) and the IC50 [16] is reported as 51.9 µM (active). For the same molecule, the IC50 [17] was > 99 µM (inactive).

With `Cn1c(SCC(=O)N(Cc2ccccc2)Cc2ccco2)nnc1-c1ccc(F)cc1` the IC50 [18] was > 99 µM (inactive) and the IC50 [19] was > 99 µM (inactive).

For `CC1CCCCC1N(C(=O)c1cc(C2CC2)on1)C1CCCCC1` (centres undefined), the EC50 [20] was > 50 µM (inactive) and the EC50 [21] was > 50 µM (inactive).

With `Nc1cccc2cccnc12` [8-AMINOQUINOLINE] the IC50 [22] was > 80 µM (inactive), the IC50 [23] was > 79 µM (inactive) and the IC50 [24] was > 79 µM (inactive).
